In US8410119B2, “Fused-aryl and heteroaryl derivatives as modulators of metabolism and the prophylaxis and treatment of disorders related thereto” (Arena Pharmaceuticals, Inc., priority 2003, dated 2013):

Columns and labels:
[1] = molecular target: T1, RUP3 (Homo sapiens, UniProt Q8TDV5); test: RUP3 dose responses in melanophores; assay type: cell-based; details: melanophores transfected with RUP3 expression vector
T1 construct: read from the listing, own knowledge; expressed in transfected cells; host or cells: melanophores, electroporated with the RUP3 expression vector (pCMV)
T1 sequence (Q8TDV5 with tags, fused parts or gaps): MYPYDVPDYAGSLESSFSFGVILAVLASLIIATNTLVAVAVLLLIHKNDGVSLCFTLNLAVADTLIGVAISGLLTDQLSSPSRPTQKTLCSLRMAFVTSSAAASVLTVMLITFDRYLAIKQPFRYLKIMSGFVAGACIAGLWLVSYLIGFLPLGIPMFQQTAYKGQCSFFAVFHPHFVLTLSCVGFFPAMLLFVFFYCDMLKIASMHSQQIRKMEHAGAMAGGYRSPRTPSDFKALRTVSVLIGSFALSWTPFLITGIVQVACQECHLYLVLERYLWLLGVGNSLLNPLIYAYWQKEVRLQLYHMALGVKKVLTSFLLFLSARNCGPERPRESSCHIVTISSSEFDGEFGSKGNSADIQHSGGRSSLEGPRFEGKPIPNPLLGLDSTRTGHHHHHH
Description: Protocol for RUP3 Dose Responses in Melanophores
Melanophores are maintained in culture as reported by Potenza, M. N. and Lerner, M. R., in Pigment Cell Research, Vol. 5, 372-378, 1992 and transfected with the RUP3 expression vector (pCMV) using electroporation. Following electroporation, the transfected cells are plated into 96 well plates for the assay. The cells are then allowed to grow for 48 hours in order to both recover from the electroporation procedure and attain maximal receptor expression levels.
On the assay day, the growth medium on the cells is replaced with serum-free buffer containing 10 nM melatonin. The melatonin acts via an endogenous Gi-coupled GPCR in the melanophores to lower intracellular cAMP levels. In response to lowered cAMP levels, the melanophores translocate their pigment to the center of the cell. The net effect of this is a significant decrease in the absorbance reading of the cell monolayer in the well, measured at […].
After a 1-hour incubation in melatonin, the cells become completely pigment-aggregated. At this point a baseline absorbance reading is collected. Serial dilutions of test compounds are then added to the plate and compounds that stimulate RUP3 produce increases in intracellular cAMP levels. In response to these increased cAMP levels, the melanophores translocate their pigment back into the cell periphery. After one hour, stimulated cells are fully pigment-dispersed. The cell monolayer in the dispersed state absorbs much more light in the 600-650 nm range. The measured increase in absorbance compared to the baseline reading allows one to quantitate the degree of receptor stimulation and plot a dose-response curve.
The compounds in the above examples were screened using the melanophore assay.

[2] = test system: Male Sprague Dawley rats; test: Oral glucose tolerance test (oGTT) in rats; assay type: in vivo; details: rat, p.o.; for Mean % inhibition of glucose excursion: dextrose 2 g/kg, mean of six animals; for Effect on blood glucose after challenge with glucose: result in words
Description: In Vivo Effects of RUP3 Agonists on Glucose Homeostasis in Rats
A. Oral Glucose Tolerance Test (oGTT)
Male Sprague Dawley rats weighing approximately 200 g-250 g were fasted for 15 hours and randomly grouped (n=6) to receive a RUP3 agonist (Compounds A194, A214 or D4) at 3, 10 or 30 mg/kg. Compounds were delivered orally via a gavage needle (p.o., volume 3 mL/kg). At time 0, levels of blood glucose were assessed using a glucometer (Elite XL, Bayer), and rats were administered either vehicle (20% hydroxypropyl-beta-cyclodextrin) or test compound. Thirty minutes after administration of test compound, levels of blood glucose were again assessed, and rats were administered dextrose orally at a dose of 2 g/kg. Blood glucose measurements were then taken 30 min, 60 min, and 120 min after this time.

| Compound | EC50 [1] [nM] | Mean % inhibition of glucose excursion ([2]; dose 30 mg/kg) | Effect on blood glucose after challenge with glucose [2] | Mean % inhibition of glucose excursion ([2]; dose 10 mg/kg) |
| --- | --- | --- | --- | --- |
| CC(C)OC(=O)N1CCC(Oc2ncnc3c2cnn3-c2ccc(S(C)(=O)=O)cc2)CC1 [Compound A5, 4-[1-(4-Methanesulfonyl-phenyl)-1H-pyrazolo[3,4-d]pyrimidin-4-yloxy]-piperidine-1-carboxylic acid isopropyl ester] | 12.7 | – | – | – |
| CC(C)Oc1ccc(C(=O)N2CCC(Oc3ncnc4c3cnn4-c3ccc(S(C)(=O)=O)cc3F)CC2)nc1 [Compound A194, {4-[1-(2-Fluoro-4-methanesulfonyl-phenyl)-1H-pyrazolo[3,4-d]pyrimidin-4-yloxy]-piperidin-1-yl}-(5-isopropoxy-pyridin-2-yl)-methanone] | – | 15%, (30) | lowered blood glucose after challenge with glucose | – |
| CC(C)OC(=O)N1CCC(Sc2ncnc3c2cnn3-c2ccc(S(C)(=O)=O)cc2F)CC1 [Compound A214, 4-[-(2-Fluoro-4-methanesulfonyl-phenyl)-1H-pyrazolo[3,4-d]-pyrimidin-4-ylsulfanyl]-piperidine-1-carboxylic acid isopropyl ester] | – | – | lowered blood glucose after challenge with glucose | 33%, (10) |
| CC(C)(C)OC(=O)N1CCC(Oc2ncnc3c2ncn3-c2ccc(S(C)(=O)=O)nc2)CC1 [Compound B5, 4-[9-(6-Methanesulfonyl-pyridin-3-yl)-9H-purin-6-yloxy]-piperidine-1-carboxylic acid tert-butyl ester] | 59.1 | – | – | – |
| CC(C)(C)OC(=O)N1CCC(Oc2ncnc3c2nnn3-c2ccc(S(C)(=O)=O)cc2)CC1 [Compound C1, 4-[3-(4-Methanesulfonyl-phenyl)-3H-[1,2,3]triazolo[4,5-d]pyrimidin-7-yloxy]-piperidine-1-carboxylic acid tert-butyl ester] | 13 | – | – | – |
| CC(C)OC(=O)N1CCC(Oc2ncnc3c(-c4ccc(S(C)(=O)=O)cc4)noc23)CC1 [Compound D4, 4-[3-(4-methanesulfonyl-phenyl)-isoxazolo[4,5-d]pyrimidin-7-yloxy]-piperidine-1-carboxylic acid isopropyl ester] | – | 12%, (30) | lowered blood glucose after challenge with glucose | – |
